From patent publication EP3714904B1, “IMINODIACETIC ACID SUBSTITUTED CYCLODEXTRINS AS POTENTIATORS OF BETA-LACTAM ANTIBIOTICS” (NATIONAL CENTER FOR SCIENTIFIC RESEARCH "DEMOKRITOS" (NCSRD), priority 2019, dated 2020) come the findings set out here.

Data set [1] deals with NDM, VIM and IMP producing K. pneumoniae clinical isolates. The data set is described as follows: Time kill assays. The format is cell-based. As to the method:
In Fig. 3 the results of the time-kill assays are shown. […] Results are expressed as log10 CFU/mL. Experiments were performed in duplicate. Antibiotic-free control cultures were included in each set of experiments as controls. Error bars are indicative of standard error mean (SEM) (n=2 replicates).

The format of data set [2] is in vivo. Particulars: dosing schemes up to 500 mg/kg. As to the method:
The acute in-vivo toxicity of β-IDACYD was also determined to provide range-finding doses to be used in in-vivo studies and possibly implicate target organs for toxicity.

Structures are written as SMILES. Bounds are passed on as bounds.

As to `CO[C@@H]1[C@@H](OC)[C@H]2O[C@H]3[C@H](OC)[C@@H](OC)[C@@H](O[C@H]4[C@H](OC)[C@@H](OC)[C@@H](O[C@H]5[C@H](OC)[C@@H](OC)[C@@H](O[C@H]6[C@H](OC)[C@@H](OC)[C@@H](O[C@H]7[C@H](OC)[C@@H](OC)[C@@H](O[C@H]8[C@H](OC)[C@@H](OC)[C@@H](O[C@@H]1[C@@H](CN(CC(=O)O)CC(=O)O)O2)O[C@@H]8CN(CC(=O)O)CC(=O)O)O[C@@H]7CN(CC(=O)O)CC(=O)O)O[C@@H]6CN(CC(=O)O)CC(=O)O)O[C@@H]5CN(CC(=O)O)CC(=O)O)O[C@@H]4CN(CC(=O)O)CC(=O)O)O[C@@H]3CN(CC(=O)O)CC(=O)O` [β-IDACYD], the “reduction of the bacterial load (CFU/mL) compared to that of the antibiotic alone” value in data set [1] (50 µM β-IDACYD with meropenem or imipenem at MIC or 2xMIC, 24 hour incubation, strains LA26, LA 109/16, 5742) is above 8 log10. In addition, the “bacterial load in time-kill assay” value in data set [1] (β-IDACYD 50 µM added to MIC or 2xMIC meropenem or imipenem) is given as “bacterial load remains close to zero”. In data set [2], the acute in-vivo toxicity entry was “no deaths and no signs indicative of acute toxicity”.
